{"source": "patent US20250134792A1", "about": "“COMPOSITIONS AND METHODS FOR TREATING SKIN” (L'Oreal, priority 2023, published 2025)", "key": {"[1]": {"tested_on": "normal human epidermal keratinocytes (NHEK)", "test": "Proliferation: KI67 staining of NHEKs", "assay_type": "cell-based", "details": "proxylane 0.005%, 0.017%, 0.05%; niacinamide 0.0012%, 0.004%, 0.012%; alone or in combination; FIG. 3", "source_text": "Surgical skin samples were taken from adults and subjected to the 0.25% trypsin dermis/epidermis separation method described in Rheinwald to obtain suspensions of normal human epidermal keratinocytes (NHEK) and dermal fibroblasts. […] The NHEK cell cultures were initiated using the 3T3 feeder-layer technique described in Rheinwald J. G., Green H.: Epidermal growth factor and the multiplication of cultured human epidermal keratinocytes.\nKeratinocytes were stained against KI67 and expression was quantified."}, "[2]": {"tested_on": "Normal Human Epidermal Melanocytes-Dark Pigment", "test": "PGE-2 induced inflammation and melanin synthesis", "assay_type": "cell-based", "details": "30 nM PGE2 stimulated melanocytes; 10 mM (0.12%) niacinamide, proxylane (0.19%); 10 days; FIG. 10", "procedure": "Normal Human Epidermal Melanocytes-Dark Pigment (Lot 1981687, Passage 3, ThermoFisher, Waltham, MA) were seeded in 6-well plates at a density of 100,000 cells per well. Cells were grown in culture medium supplemented with Gibo Human Melanocyte Growth Supplement-2 (ThermoFisher, Waltham, MA). […] Following the 10 days, cells were trypsinized and the melanin was isolated using NaOH. A standard curve using commercially available melanin was used to calculate the average cellular melanin content using the recorded optical density of the isolated melanin using a microplate reader. Average cellular melanin content was normalized to total protein content."}, "neutrophil elastase": {"target": "T1, neutrophil elastase (Homo sapiens, UniProt P08246)", "T1 sequence (P08246 30-267)": "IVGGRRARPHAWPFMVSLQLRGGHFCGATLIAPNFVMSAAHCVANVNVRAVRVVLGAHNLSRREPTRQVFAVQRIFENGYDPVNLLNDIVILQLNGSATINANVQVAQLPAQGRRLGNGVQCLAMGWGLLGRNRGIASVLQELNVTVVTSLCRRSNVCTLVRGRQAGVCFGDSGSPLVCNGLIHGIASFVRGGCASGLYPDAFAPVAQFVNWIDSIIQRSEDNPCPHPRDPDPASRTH", "details": "alone and in combination; 37° C., fluorescence slope over thirty minutes; FIG. 5"}}, "data": [{"smiles": "NC(=O)c1cccnc1", "note": "[vitamin B3, niacinamide]", "values": [{"measurement": "cell proliferation of keratinocytes (KI67 expression)", "setting": "[1]", "value": "capable of stimulating"}, {"measurement": "melanin production (average cellular melanin content normalized to total protein)", "setting": "[2]", "value": "significantly decreases"}, {"measurement": "elastase activity", "setting": "neutrophil elastase", "value": "inhibit"}]}]}
